From the Kinase Knowledgebase extract (Sharma et al. 2016) come the findings set out here.

The first assay has as its target CDK2 (human) (UniProt P24941). As to the kind of experiment: Enzyme Assay.
Settings: not given
With `Nc1nc(NC2CCN(S(=O)(=O)CCCn3cncn3)CC2)sc1C(=O)c1c(F)cccc1F`, the Ki (as a rule, the equilibrium dissociation constant of an inhibitor or competing ligand from its target) is 4.4 nM.

Staying with this assay, now noted: concentration not given here.
In the case of `Cc1ccc(C(C)C)c(C(=O)N2CCC(Nc3nc(N)c(C(=O)c4c(F)cccc4F)s3)CC2)c1O`, the inhibition – broadly, the drop in the measured response relative to a control, in per cent – turned out to be 30%. Take `Cc1ccc(/C=C/C(=O)N2CCC(Nc3nc(N)c(C(=O)c4c(F)cccc4F)s3)CC2)c(C)c1`: the inhibition is 31%.

For `Nc1nc(NC2CCN(C(=O)c3cnc4ccccc4c3)CC2)sc1C(=O)c1c(F)cccc1F`, the inhibition is 27%. Regarding `CCc1ccc2[nH]c(C(=O)N3CCC(Nc4nc(N)c(C(=O)c5c(F)cccc5F)s4)CC3)cc2c1`, the inhibition was found to be 74%. As for `COc1ccc2oc(C(=O)N3CCC(Nc4nc(N)c(C(=O)c5c(F)cccc5F)s4)CC3)cc2c1`, the inhibition turned out to be 61%. On the same count and under the same terms, for `Nc1nc(NC2CCN(C(=O)OCC3c4ccccc4-c4ccccc43)CC2)sc1C(=O)c1c(F)cccc1F` the value was -12%. Consider `CC(C)C(C)C(=O)N1CCC(Nc2nc(N)c(C(=O)c3c(F)cccc3F)s2)CC1` (stereo not given), for which the inhibition was 35%.

For the compound `CCN(CC)CCC(=O)N1CCC(Nc2nc(N)c(C(=O)c3c(F)cccc3F)s2)CC1`, the inhibition came to 57%. In the case of `CS(=O)(=O)c1ccccc1S(=O)(=O)N1CCC(Nc2nc(N)c(C(=O)c3c(F)cccc3F)s2)CC1`, the inhibition is -5%. Regarding `CCOC(=O)CCC(=O)N1CCC(Nc2nc(N)c(C(=O)c3c(F)cccc3F)s2)CC1`, the inhibition turned out to be 54%. Same read-out and setting: for `COc1ccccc1/C=C/C(=O)N1CCC(Nc2nc(N)c(C(=O)c3c(F)cccc3F)s2)CC1` the value was 92%. Take `COC(C(=O)N1CCC(Nc2nc(N)c(C(=O)c3c(F)cccc3F)s2)CC1)c1ccccc1` (stereo not given): the inhibition stood at 28%. With `Nc1nc(NC2CCN(C(=O)/C=C/c3ccc4c(c3)CCC4)CC2)sc1C(=O)c1c(F)cccc1F`, the inhibition amounted to 48%. Consider `Nc1nc(NC2CCN(C(=O)c3ccsc3)CC2)sc1C(=O)c1c(F)cccc1F`, for which the inhibition was determined as 52%. Take `CCCCOCC(=O)N1CCC(Nc2nc(N)c(C(=O)c3c(F)cccc3F)s2)CC1`: the inhibition is 79%. Turning to `Nc1nc(NC2CCN(C(=O)[C@@H](O)Cc3ccccc3)CC2)sc1C(=O)c1c(F)cccc1F`, the inhibition came to 61%. Take `Nc1nc(NC2CCN(C(=O)CCCN3C(=O)C=CC3=O)CC2)sc1C(=O)c1c(F)cccc1F`: the inhibition came to 43%. Consider `Cc1cccc(CC(=O)N2CCC(Nc3nc(N)c(C(=O)c4c(F)cccc4F)s3)CC2)c1`, for which the inhibition was determined as 55%. On to `CCCCC(C)C(=O)N1CCC(Nc2nc(N)c(C(=O)c3c(F)cccc3F)s2)CC1` (stereo not given), for which the inhibition was -2%. The same measure, in the same setting: the figure for `Nc1nc(NC2CCN(C(=O)N3CCCC3)CC2)sc1C(=O)c1c(F)cccc1F` is -10%; for `C=CCCCCC(=O)N1CCC(Nc2nc(N)c(C(=O)c3c(F)cccc3F)s2)CC1` it is 16%. Turning to `Nc1nc(NC2CCN(C(=O)c3ccc4ccccc4n3)CC2)sc1C(=O)c1c(F)cccc1F`, the inhibition amounted to 9%. Same read-out and setting: for `CN(C)C(=O)CCC(=O)N1CCC(Nc2nc(N)c(C(=O)c3c(F)cccc3F)s2)CC1` the value was 49%. As for `CO[C@@H](C(=O)N1CCC(Nc2nc(N)c(C(=O)c3c(F)cccc3F)s2)CC1)c1ccccc1`, the inhibition worked out at 54%.

On to `Nc1nc(NC2CCN(C(=O)/C=C/c3cc(O)ccc3O)CC2)sc1C(=O)c1c(F)cccc1F`, for which the inhibition is 80%. On to `CCOC(=O)N1CCC(Nc2nc(N)c(C(=O)c3c(F)cccc3F)s2)CC1`, for which the inhibition is -13%.

As to `CCCCOc1ccc(C(C)(C)CC(C)(C)C)cc1S(=O)(=O)N1CCC(Nc2nc(N)c(C(=O)c3c(F)cccc3F)s2)CC1`, the inhibition is -28%. `Nc1nc(NC2CCN(C(=O)/C=C/c3ccc(O)cc3)CC2)sc1C(=O)c1c(F)cccc1F`: the inhibition came to 66%.

For the compound `Cc1c(C(=O)N2CCC(Nc3nc(N)c(C(=O)c4c(F)cccc4F)s3)CC2)oc2ccccc12`, the inhibition came to 38%.

Consider `N#C/C(=C\c1cccc(O)c1)C(=O)N1CCC(Nc2nc(N)c(C(=O)c3c(F)cccc3F)s2)CC1`, for which the inhibition is 84%. `Cn1ncc(C(=O)N2CCC(Nc3nc(N)c(C(=O)c4c(F)cccc4F)s3)CC2)c1[N+](=O)[O-]`: the inhibition is 40%.

With `Cc1c(S(=O)(=O)c2ccc(Cl)cc2)csc1C(=O)N1CCC(Nc2nc(N)c(C(=O)c3c(F)cccc3F)s2)CC1`, the inhibition is -7%. Still for that read-out and setting: the figure for `Nc1nc(NC2CCN(S(=O)(=O)c3c(F)cccc3F)CC2)sc1C(=O)c1c(F)cccc1F` is -8%; for `Nc1nc(NC2CCN(C(=O)CS/C=C\c3ccccc3)CC2)sc1C(=O)c1c(F)cccc1F` it is 59%.

With `CN(C)c1ccc(/C=C/C(=O)N2CCC(Nc3nc(N)c(C(=O)c4c(F)cccc4F)s3)CC2)cc1`, the inhibition was 75%. With `Nc1nc(NC2CCN(C(=O)CC3=CCCCC3)CC2)sc1C(=O)c1c(F)cccc1F`, the inhibition was 51%. For the compound `CC(CC(=O)N1CCC(Nc2nc(N)c(C(=O)c3c(F)cccc3F)s2)CC1)CC(C)(C)C` (stereo not given), the inhibition was 35%.

Turning to `Nc1nc(NC2CCN(C(=O)/C=C/c3ccccc3)CC2)sc1C(=O)c1c(F)cccc1F`, the inhibition was determined as 47%. `Cc1ncccc1C(=O)N1CCC(Nc2nc(N)c(C(=O)c3c(F)cccc3F)s2)CC1`: the inhibition was found to be 52%. Regarding `Cc1cccc(Cl)c1C(=O)N1CCC(Nc2nc(N)c(C(=O)c3c(F)cccc3F)s2)CC1`, the inhibition stood at 47%. The same measure, in the same setting: for `Cc1nn(C)c2ncc(C(=O)N3CCC(Nc4nc(N)c(C(=O)c5c(F)cccc5F)s4)CC3)c(Cl)c12` the value was 16%; for `CC/C=C\CC(=O)N1CCC(Nc2nc(N)c(C(=O)c3c(F)cccc3F)s2)CC1`, 85%; for `Nc1nc(NC2CCN(C(=O)C(O)Cc3ccc(O)cc3)CC2)sc1C(=O)c1c(F)cccc1F` (stereo not given), 34%. Consider `NC(=O)Nc1ccc(C(=O)N2CCC(Nc3nc(N)c(C(=O)c4c(F)cccc4F)s3)CC2)cc1`, for which the inhibition was 76%. Take `Nc1nc(NC2CCN(S(=O)(=O)c3cccc([N+](=O)[O-])c3)CC2)sc1C(=O)c1c(F)cccc1F`: the inhibition is -23%. On to `Cc1cc(C(=O)N2CCC(Nc3nc(N)c(C(=O)c4c(F)cccc4F)s3)CC2)n(C(C)(C)C)n1`, for which the inhibition worked out at 59%.

For the compound `Cc1ccc(F)cc1C(=O)N1CCC(Nc2nc(N)c(C(=O)c3c(F)cccc3F)s2)CC1`, the inhibition was determined as 52%.

On to `CC(C)=CC(=O)N1CCC(Nc2nc(N)c(C(=O)c3c(F)cccc3F)s2)CC1`, for which the inhibition is -19%.

Consider `Cc1ccoc1C(=O)N1CCC(Nc2nc(N)c(C(=O)c3c(F)cccc3F)s2)CC1`, for which the inhibition was found to be 31%. For `CCC(O)C(=O)N1CCC(Nc2nc(N)c(C(=O)c3c(F)cccc3F)s2)CC1` (stereo not given), the inhibition was 48%. Turning to `Nc1nc(NC2CCN(C(=O)C(c3ccccc3)c3ccccc3)CC2)sc1C(=O)c1c(F)cccc1F`, the inhibition is -34%.

For `Nc1nc(NC2CCN(C(=O)c3cccc(F)c3F)CC2)sc1C(=O)c1c(F)cccc1F`, the inhibition came to 11%.

`COc1ccc(OC)c(CC(=O)N2CCC(Nc3nc(N)c(C(=O)c4c(F)cccc4F)s3)CC2)c1`: the inhibition stood at 57%. Turning to `CN1CC(C(=O)N2CCC(Nc3nc(N)c(C(=O)c4c(F)cccc4F)s3)CC2)CC1=O` (stereo not given), the inhibition worked out at 41%. In the case of `COc1cc(C(O)C(=O)N2CCC(Nc3nc(N)c(C(=O)c4c(F)cccc4F)s3)CC2)ccc1O` (stereo not given), the inhibition worked out at 26%. For `Nc1nc(NC2CCN(C(=O)CC3CCCCC3)CC2)sc1C(=O)c1c(F)cccc1F`, the inhibition was -5%. Regarding `COc1cc(N)ccc1/C=C/C(=O)N1CCC(Nc2nc(N)c(C(=O)c3c(F)cccc3F)s2)CC1`, the inhibition stood at 56%. On to `CS(=O)(=O)CC(=O)N1CCC(Nc2nc(N)c(C(=O)c3c(F)cccc3F)s2)CC1`, for which the inhibition was determined as 45%. For the compound `Nc1nc(NC2CCN(C(=O)CC3Cc4ccccc4C3)CC2)sc1C(=O)c1c(F)cccc1F`, the inhibition is 37%. With `COCCOCCOCC(=O)N1CCC(Nc2nc(N)c(C(=O)c3c(F)cccc3F)s2)CC1`, the inhibition is 38%. Consider `NC(=S)Nc1ccc(C(=O)N2CCC(Nc3nc(N)c(C(=O)c4c(F)cccc4F)s3)CC2)cc1`, for which the inhibition turned out to be 73%. As to `CC(=O)O[C@@H](C(=O)N1CCC(Nc2nc(N)c(C(=O)c3c(F)cccc3F)s2)CC1)c1ccccc1`, the inhibition worked out at 25%. On to `Nc1nc(NC2CCN(S(=O)(=O)c3cccc4cccnc34)CC2)sc1C(=O)c1c(F)cccc1F`, for which the inhibition is -32%. Consider `Nc1nc(NC2CCN(C(=O)Cc3cc(F)cc(F)c3F)CC2)sc1C(=O)c1c(F)cccc1F`, for which the inhibition is 44%.

`CCC[C@H]1CC[C@H](C(=O)N2CCC(Nc3nc(N)c(C(=O)c4c(F)cccc4F)s3)CC2)CC1`: the inhibition stood at 42%.

Take `Cc1ccc2[nH]c(C(=O)N3CCC(Nc4nc(N)c(C(=O)c5c(F)cccc5F)s4)CC3)cc2c1`: the inhibition came to 54%. With `Nc1nc(NC2CCN(C(=O)c3ccnc4ccccc34)CC2)sc1C(=O)c1c(F)cccc1F`, the inhibition amounted to 10%.

With `Nc1nc(NC2CCN(C(=O)Cc3ccncc3)CC2)sc1C(=O)c1c(F)cccc1F`, the inhibition was 17%. With `Nc1nc(NC2CCN(C(=O)CCCc3ccccc3)CC2)sc1C(=O)c1c(F)cccc1F`, the inhibition was 38%. In the case of `CC1CC1C(=O)N1CCC(Nc2nc(N)c(C(=O)c3c(F)cccc3F)s2)CC1` (stereo not given), the inhibition is -10%.

Consider `CC[C@H](C(=O)N1CCC(Nc2nc(N)c(C(=O)c3c(F)cccc3F)s2)CC1)c1ccccc1`, for which the inhibition was determined as 42%. For `CC(=O)CCCCC(=O)N1CCC(Nc2nc(N)c(C(=O)c3c(F)cccc3F)s2)CC1`, the inhibition turned out to be 49%. As for `CC(=O)CC(C(=O)N1CCC(Nc2nc(N)c(C(=O)c3c(F)cccc3F)s2)CC1)c1ccccc1` (stereo not given), the inhibition turned out to be 17%. Consider `Nc1nc(NC2CCN(C(=O)c3cccc4ccccc34)CC2)sc1C(=O)c1c(F)cccc1F`, for which the inhibition stood at 55%. Same read-out and setting: the figure for `CCC(C)C(C(=O)N1CCC(Nc2nc(N)c(C(=O)c3c(F)cccc3F)s2)CC1)c1ccccc1` (stereo not given) is 49%; for `Nc1nc(NC2CCN(C(=O)Cn3cnnn3)CC2)sc1C(=O)c1c(F)cccc1F` it is 87%; for `CCCC/C=C/C(=O)N1CCC(Nc2nc(N)c(C(=O)c3c(F)cccc3F)s2)CC1` it is 27%. As for `COc1cc(SC)ccc1C(=O)N1CCC(Nc2nc(N)c(C(=O)c3c(F)cccc3F)s2)CC1`, the inhibition came to 22%. As for `Nc1nc(NC2CCN(C(=O)Cc3ccc4c(c3)OCO4)CC2)sc1C(=O)c1c(F)cccc1F`, the inhibition came to 39%.
